From patent US20250332173A1, “COMPOUNDS AND METHODS FOR MODULATING NUCLEIC ACID SPLICING” (REMIX THERAPEUTICS INC., priority 2021, published 2025)
Like-named read-outs stand apart in the source and are kept apart here.

Columns and labels:
Target C = assay: RT-qPCR splicing assay panel, Target C canonical junction (CJ) mRNA; assay type: cell-based, human; conditions: Homo sapiens
Outline: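 K562/A673 cells, 11-pt 3-fold compound titration from 10 uM final, DMSO ≤0.25%, 24 h 37 °C 5% CO2; lyse (DNase I or Igepal/Tris buffer pH 7.4); RT-qPCR for CJ isoform vs housekeeping gene (GAPDH/GUSB/PPIA).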

MYB mRNA = assay: RT-qPCR splicing assay, MYB canonical junction (CJ) and alternative junction (AJ) mRNA; assay type: cell-based, human; conditions: Homo sapiens; for AC50: increase in MYB alternative junction (AJ) mRNA, read-out: MYB AJ AC50
Outline: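 Following a 24-hour incubation of A673 or K562 cells with serially diluted compound (3-fold steps, highest final 10 uM), the lysates undergo cDNA synthesis plus qPCR. Canonical and alternative junctions are each quantified against PPIA, GAPDH or GUSB.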

[1] = canonical junction qPCR panel, Table 5, read-out: Target C (decrease in CJ mRNA levels, IC50)
[2] = canonical junction qPCR panel, Table 5, read-out: MYB (decrease in CJ mRNA levels, IC50)
[3] = decrease in MYB canonical junction (CJ) mRNA, RT-qPCR, read-out: MYB CJ IC50
[4] = Table 5 panel, canonical junction qPCR, compound concentration having 50% response in CJ decrease, read-out: Target C IC50 (decrease in CJ mRNA levels)
[5] = Table 5 panel, canonical junction qPCR, compound concentration having 50% response in CJ decrease, read-out: MYB IC50 (decrease in CJ mRNA levels)

SMILES	IC50 (Target C; [1]) [nM]	IC50 (MYB mRNA; [2]) [nM]	IC50 (MYB mRNA; [3]) [nM]	AC50 (MYB mRNA; RT-qPCR) [nM]	IC50 (Target C; [4]) [nM]	IC50 (MYB mRNA; [5]) [nM]
Cc1c(O)c(-c2ncc3c(=O)n(C4CCNC4)ccc3n2)cc2cn(C)nc12 (stereo in doubt) [Compound 1439, (6R)-2-(6-hydroxy-2,7-dimethyl-indazol-5-yl)-6-pyrrolidin-3-yl-pyrido[4,3-d]pyrimidin-5-one]	> 10000	100 to 1000	100 to 1000	100 to 1000	–	–
Cc1c(O)c(-c2ncc3c(=O)n(C4CCNC4)ccc3n2)cc2cn(C)nc12 (stereo in doubt) [Compound 1440, (6S)-2-(6-hydroxy-2,7-dimethyl-indazol-5-yl)-6-pyrrolidin-3-yl-pyrido[4,3-d]pyrimidin-5-one]	> 10000	100 to 1000	100 to 1000	100 to 1000	–	–
Cc1c(O)c(-c2ncc3c(=O)n([C@@H]4CC5CC4CN5)ccc3n2)cc2cn(C)nc12 (stereo in doubt) [Compound 1443, 6-[(1R,4R,5R)-2-azabicyclo[2.2.1]heptan-5-yl]-2-(6-hydroxy-2,7-dimethyl-indazol-5-yl)pyrido[4,3-d]pyrimidin-5-one]	1000 to 10000	100 to 1000	100 to 1000	100 to 1000	–	–
Cc1c(O)c(-c2ncc3c(=O)n(C4C[C@H]5C[C@@H]4CN5)ccc3n2)cc2cn(C)nc12 (stereo in doubt) [Compound 1444, 6-[(1R,4R,5R)-2-azabicyclo[2.2.1]heptan-5-yl]-2-(6-hydroxy-2,7-dimethyl-indazol-5-yl)pyrido[4,3-d]pyrimidin-5-one]	100 to 1000	100 to 1000	100 to 1000	100 to 1000	–	–
Cc1c(O)c(-c2ncc3c(=O)n([C@@H]4C[C@H]5C[C@@H]4CN5)ccc3n2)cc2cn(C)nc12 (stereo in doubt) [Compound 1446, 6-[(1R,4R,5R)-2-azabicyclo[2.2.1]heptan-5-yl]-2-(6-hydroxy-2,7-dimethyl-indazol-5-yl)pyrido[4,3-d]pyrimidin-5-one]	> 10000	1000 to 10000	1000 to 10000	1000 to 10000	–	–
Cn1cc2cc(-c3ccc4c(=O)n(C5CCNCC5)cnc4c3)ccc2n1 [Compound 182]	–	–	100 to 1000	100 to 1000	1000 to 10000	100 to 1000
Cc1cn2nc(-c3ccc4c(=O)n(C5CCNCC5)ncc4c3)cc(C)c2n1 [Compound 186]	–	–	100 to 1000	< 100	100 to 1000	100 to 1000
Cc1cn2nc(-c3ccc4c(c3F)CCN(C3CCNCC3)C4=O)cc(C)c2n1 [Compound 188]	–	–	100 to 1000	1000 to 10000	1000 to 10000	1000 to 10000
CN1CCC(Nc2ccc3c(=O)n(-c4ccc5cn(C)nc5c4)cnc3c2)CC1 [Compound 203]	–	–	> 10000	> 10000	> 10000	> 10000
Cn1cc2ccc(-n3cnc4cc(NC5CCNCC5)ccc4c3=O)cc2n1 [Compound 204]	–	–	> 10000	> 10000	> 10000	> 10000
Cc1c(O)c(-c2ncc3c(=O)n(C4CCNCC4)cc(C)c3n2)cc2cn(C)nc12 [Compound 1191]	–	–	< 100	< 100	100 to 1000	< 100
Cc1cn2cc(-c3cc4ccn(C5CCNCC5)c(=O)c4cn3)cc(F)c2n1 [Compound 1196]	–	–	< 100	< 100	100 to 1000	< 100
Cc1cn2nc(-c3cc4ccn(C5CCNCC5)c(=O)c4cn3)cc(C)c2n1 [Compound 1198, 6-(2,8-dimethylimidazo[1,2-b]pyridazin-6-yl)-2-(piperidin-4-yl)-2,7-naphthyridin-1(2H)-one]	–	–	100 to 1000	100 to 1000	100 to 1000	100 to 1000
Cn1cc2cc(-c3cc4ccn(C5CCNCC5)c(=O)c4cn3)c(O)c(F)c2n1 [Compound 1199]	–	–	100 to 1000	1000 to 10000	1000 to 10000	1000 to 10000
Cc1cc(-c2cc3ccn(C4CCNCC4)c(=O)c3cn2)cc2cn(C)nc12 [Compound 1204, 6-(2,7-dimethyl-2H-indazol-5-yl)-2-(piperidin-4-yl)-2,7-naphthyridin-1(2H)-one]	–	–	100 to 1000	100 to 1000	1000 to 10000	100 to 1000
Cc1cn2cc(-c3cc4ccn(C5CCNCC5)c(=O)c4cn3)nc(C)c2n1 [Compound 1205, 6-(2,8-dimethylimidazo[1,2-a]pyrazin-6-yl)-2-(piperidin-4-yl)-2,7-naphthyridin-1(2H)-one]	–	–	100 to 1000	100 to 1000	100 to 1000	100 to 1000
Cc1cc(-c2cc3ccn(C4CCN(C)CC4)c(=O)c3cn2)cc2cn(C)nc12 [Compound 1206, 6-(2,7-dimethyl-2H-indazol-5-yl)-2-(1-methylpiperidin-4-yl)-2,7-naphthyridin-1(2H)-one]	–	–	1000 to 10000	100 to 1000	> 10000	100 to 1000
CCN1CCC(n2ccc3cc(-c4cc(C)c5nn(C)cc5c4)ncc3c2=O)CC1 [Compound 1207, 6-(2,7-dimethyl-2H-indazol-5-yl)-2-(1-ethylpiperidin-4-yl)-2,7-naphthyridin-1(2H)-one]	–	–	1000 to 10000	1000 to 10000	1000 to 10000	1000 to 10000
Cc1cc(-c2cc3ccn(C4CCN(C5CC5)CC4)c(=O)c3cn2)cc2cn(C)nc12 [Compound 1208, 2-(1-cyclopropylpiperidin-4-yl)-6-(2,7-dimethyl-2H-indazol-5-yl)-2,7-naphthyridin-1(2H)-one]	–	–	1000 to 10000	1000 to 10000	> 10000	1000 to 10000
Cc1cc(-c2cc3ccn(C4CCN(C5COC5)CC4)c(=O)c3cn2)cc2cn(C)nc12 [Compound 1209, 6-(2,7-dimethyl-2H-indazol-5-yl)-2-(1-(oxetan-3-yl)piperidin-4-yl)-2,7-naphthyridin-1(2H)-one-1]	–	–	100 to 1000	100 to 1000	100 to 1000	100 to 1000
Cc1cc(-c2cc3ccn(C4CCN(CCO)CC4)c(=O)c3cn2)cc2cn(C)nc12 [Compound 1210, 6-(2.7-dimethyl-2H-indazol-5-yl)-2-(1-(2-hydroxyethyl)piperidin-4-yl)-2,7-naphthyridin-1(2H)-one]	–	–	100 to 1000	1000 to 10000	> 10000	1000 to 10000
Cn1cc2cc(-c3ncc4c(=O)n(C5CCNCC5)ccc4n3)c(O)cc2n1 [Compound 1211]	–	–	< 100	100 to 1000	1000 to 10000	100 to 1000
Cn1cc2cc(-c3ncc4c(=O)n(C5CCNCC5)ccc4n3)cc(F)c2n1 [Compound 1212, 2-(7-fluoro-2-methyl-2H-indazol-5-yl)-6-(piperidin-4-yl)pyrido[4,3-d]pyrimidin-5(6H)-one]	–	–	100 to 1000	< 100	100 to 1000	< 100
Cc1cn2cc(-c3cc4ccn(C5CCNC5)c(=O)c4cn3)cc(C#N)c2n1 (stereo not shown) [Compound 1214]	–	–	1000 to 10000	1000 to 10000	> 10000	1000 to 10000
Cc1cn2cc(-c3ncc4c(=O)n(C5CCNC5)ccc4n3)cc(F)c2n1 (stereo not shown) [Compound 1215]	–	–	1000 to 10000	100 to 1000	> 10000	100 to 1000
COc1c(-c2cc3ccn(C4CCNCC4)c(=O)c3cn2)cc2cn(C)nc2c1F [Compound 1219]	–	–	1000 to 10000	1000 to 10000	> 10000	1000 to 10000
Cc1cn2cc(-c3ncc4c(=O)n([C@H]5CCNC5)ccc4n3)cc(F)c2n1 [Compound 1220]	–	–	100 to 1000	100 to 1000	100 to 1000	100 to 1000
Cc1cn2cc(-c3ncc4c(=O)n(C5CCNC5)ccc4n3)cc(C#N)c2n1 (stereo not shown) [Compound 1221]	–	–	100 to 1000	100 to 1000	100 to 1000	100 to 1000
